The record followed here is patent US10047345B2, “Culturing of mesenchymal stem cells with FGF4 and nicotinamide” (Gamida-Cell Ltd., priority 2012, dated 2018).

Format in all cases: cell-based, human
Series [1] has as its system adipose tissue derived mesenchymal stem cells. In words: Expansion and phenotype of adipose tissue derived MSCs with nicotinamide. As to the method:
(§1) Cell number was measured using Cedex Automated Cell Counter (Innovatis). The cells were diluted 1:2 in Trypan Blue (Sigma) and cell number was measured automatically under microscope.

The subject of series [2] is bone marrow derived mesenchymal stem cells. Briefly: Seeding, expansion, size and granularity of bone marrow derived MSCs with nicotinamide. How it is done:
Bone marrow derived and adipose tissue derived mesenchymal cells were isolated based on their plastic adherence potential in expansion medium containing: High glucose DMEM and 10% Fetal Bovine Serum (FBS, Hyclone, Logan, Utah, USA) supplemented with 0.05 mg/ml Gentamicin (Sigma) and 2 mM L-glutamine (Biological Industries, Israel). Cells were allowed to adhere for 3-4 days and non-adherent cells were washed out with medium changes. The medium was further exchanged with fresh medium every 3-4 days. Once adherent cells reached approximately 80-90% confluency, they were detached with 0.25% trypsin-EDTA (Sigma), washed twice in DMEM and 10% Fetal Bovine Serum, with centrifugation, 400 g, 5 minutes, and replated at a 1:2 to 1:1000 dilution under the same culture conditions. Cell size was measured using Cedex Automated Cell Counter (Innovatis). The cells were diluted 1:2 in Trypan Blue (Sigma) and cell size was measured automatically under microscope. Following trypsin treatment, the cells were analyzed for granularicity by side scatter FACS. Cell number was measured using Cedex Automated Cell Counter (Innovatis). The cells were diluted 1:2 in Trypan Blue (Sigma) and cell number was measured automatically under microscope. […] At each passage and at each medium exchange, the cultures were supplemented with mesenchymal medium, nicotinamide and growth factors.

For series [3], the system named is adipose-derived mesenchymal stem cells. In words: Adipose-derived MSC proliferation and cell size with nicotinamide with or without FGF4. Conditions: Cedex cell counter; 5 mM NAM, 50 ng/ml FGF4. How it is done: as §1
The subject of series [4] is bone marrow-derived mesenchymal stem cells. Briefly: Senescence evaluation assay (beta-galactosidase staining). Conditions: 5 passages, 5 mM NAM, X-Gal staining. How it is done:
Cultured MSCs were stained using the Senescence beta-Galactosidase Staining Kit (Cell Signaling). The cells are fixed and stained for detection of beta-Galactosidase activity at pH 6 using X-Gal and incubation overnight in 37° C. in dry incubator.

Series [5] has as its system bone marrow mesenchymal stem cells. Briefly: Growth factor secretion into conditioned medium (ELISA). Conditions: passage 4, 5 mM NAM, 50 ng/ml FGF4. As to the method:
In some experiments, the adherent cells were cultured with or without nicotinamide and indicated factors, and 24 hours before passage 4, and the medium replaced with medium without fetal bovine serum or FGF4. Medium from MSC cultured as indicated, and depleted of fetal bovine serum and FGF4 24 hours before passage 4 was collected and assayed by ELISA for growth factors and immune-related factors secreted into the medium ([…] HGF, transforming growth factor beta TGF-β, keratinocyte growth factor KGF and interleukin 6 IL-6). ELISA was carried out using solid phase sandwich ELISA kits specific for human KGF (R&D systems, cat#DKG00), IL-6 (R&D systems, cat#D6050), TGF-β1 (R&D systems, cat#DB100B), HGF (R&D systems, cat#DHG00).
In general terms: In an ELISA, binding on a coated surface is turned into a signal by an enzyme label.

In series [6] the test system is mesenchymal stem cells. In words: CFU-F assay. Conditions: 5 mM nicotinamide. As to the method:
Cultured MSCs were seeded in 6-well plates at density of 50-100 cells/cm^2 and maintained with DMEM and 10% FBS. After 14 days the cells were fixed using 10% cold Formalin (Sigma) and stained with Harris Hematoxylin (Sigma). Clones (cluster of more than 50 cells with evident epicenter) are stained blue-purple and counted using microscope.

Series [7] concerns mesenchymal stem cells. Briefly: Large batch and serum batch MSC culture with nicotinamide (cell count). How it is done:
Cell number was measured using Cedex Automated Cell Counter (Innovatis). The cells were diluted 1:2 in Trypan Blue (Sigma) and cell number was measured automatically under microscope. Mesenchymal stem cells were isolated using plastic adherence method, as described above and cultured for several passages with fetal bovine serum, ±NAM. The cells were selected in the presence of NAM. At about 80% confluence, adherent cells were collected following trypsin treatment, counted, characterized and re-seeded at a concentration of 1×10^3 cells/cm^2.

The test system of series [8] is mesenchymal stem cells. Briefly: Surface expression of VCAM1/CD106 and CD54 by FACS. Conditions: versus MSCs grown without nicotinamide. How it is done:
Mesenchymal stem cells were isolated using plastic adherence method, as described above and cultured for several passages with fetal bovine serum, ±NAM. The cells were selected in the presence of NAM. At about 80% confluence, adherent cells were collected following trypsin treatment, counted, characterized and re-seeded at a concentration of 1×10^3 cells/cm^2. Following Trypsin treatment the cells were analyzed for CD 106 expression in FACS using anti-human CD 106 PE antibodies. Following Trypsin treatment the cells were analyzed for CD54 expression in FACS using anti-human CD54 antibodies.
In general terms: Flow cytometry measures light scatter and fluorescence of single cells or particles in a stream.

Series [9] relates to mesenchymal stem cells. Briefly: Expansion of mesenchymal stem cells with growth factors with and without nicotinamide (cumulative cell count). Conditions: NAM 5 mM, FGF4 50 ng/ml. How it is done:
Bone marrow derived and adipose tissue derived mesenchymal cells were isolated based on their plastic adherence potential in expansion medium containing: High glucose DMEM and 10% Fetal Bovine Serum (FBS, Hyclone, Logan, Utah, USA) supplemented with 0.05 mg/ml Gentamicin (Sigma) and 2 mM L-glutamine (Biological Industries, Israel). Cells were allowed to adhere for 3-4 days and non-adherent cells were washed out with medium changes. The medium was further exchanged with fresh medium every 3-4 days.
Once adherent cells reached approximately 80-90% confluency, they were detached with 0.25% trypsin-EDTA (Sigma), washed twice in DMEM and 10% Fetal Bovine Serum, with centrifugation, 400 g, 5 minutes, and replated at a 1:2 to 1:1000 dilution under the same culture conditions.
Cell number was measured using Cedex Automated Cell Counter (Innovatis). The cells were diluted 1:2 in Trypan Blue (Sigma) and cell number was measured automatically under microscope. […]
Mesenchymal stem cells were selected and cultured in the presence of particular growth factors (basic fibroblast growth factor—bFGF, heparin binding epidermal growth factor—HB-EGF, fibroblast growth factor 4—FGF-4 and platelet derived growth factor, homodimer, subunit B, PDGF-BB) in the presence and absence of nicotinamide for three or four passages and the number and size of the cells was calculated. […]

Entries after “also recorded” stand apart in the source; their conditions may differ.

Take `NC(=O)c1cccnc1` [nicotinamide, Nicotinamide]: in series [1] (at least six passages), the “differentiation state (surface marker composition) after expansion in nicotinamide” value was “without induction of differentiation”. Besides, the “adipose derived mesenchymal stem cell expansion in culture” value in [1] (nicotinamide added from passage 3) was “substantially improved”. Also, the “seeding efficacy (selection) of bone marrow derived MSCs” value in series [2] is given as “increased the seeding efficacy”. For the same molecule, the “expansion rate of bone marrow derived MSCs at low nicotinamide concentration” value in series [2] (0.1 mM nicotinamide, figure not shown) is listed as “insignificant effect”. Also, the “cell size and granularity of MSCs versus culture without nicotinamide” value in series [2] (identical conditions without nicotinamide as comparison) is “smaller and less granular”. Also, in series [2] (nicotinamide added from initiation of culture and at each passage), the “doubling time of MSCs” value is “decreased”. In addition, the “prevalence of smaller size cells in adipose derived MSC cultures” value in [3] is on record as “increased prevalence of smaller size cells”. Further, the “amount of senescent cells” value in series [4] is “reduced”. For the same molecule, in series [5], the “hepatocyte growth factor (HGF) in conditioned medium” value is given as “elevated levels”, the “interleukin 6 (IL-6) secreted into conditioned medium” value is “reduced levels; also recorded: reduction”, the “keratinocyte growth factor (KGF) in conditioned medium” value is recorded as “elevated levels” and the “transforming growth factor beta (TGF-β) in conditioned medium” value was “elevated levels”. Further, the “cumulative CFU-F count” value with mesenchymal stem cells [6] is recorded as “increases the cumulative CFU-F count”. The “effect on cell count in large batches of MSCs” value with mesenchymal stem cells [7] (large batch culture) is recorded as “evident on large batches”. Besides, the “dependence of the proliferative effect on serum batch” value in the series with mesenchymal stem cells [7] (one of two experiments) was “not dependent on a particular batch of serum”. In the series on mesenchymal stem cells [8], the CD54 expression entry was “express less CD54” and the VCAM1/CD106 expression entry is “express more VCAM1/CD106”. The “effect on the ability of FGF4 to increase proliferation of mesenchymal stem cells” value with mesenchymal stem cells [9] is reported as “potentiating effect”.
